The values below come from ChEMBL document CHEMBL1201862, “PubChem BioAssay data set” (2004).

Calls of active or inactive are those of the source. Bounds are passed on as bounds.

One assay has as its system CHO-K1. Nature of the assay: Counterscreen for antagonists of the orexin 1 receptor (OX1R; HCRTR1): Homogeneous time resolved fluorescence (HTRF)-based cell-based dose response assay to identify antagonists of the parental CHO-K1 cell line. [Related pubchem assays (depositor defined):AID434989, AID435008, AID463079, AID485270, AID492963, AID492964, AID492965, AID493232, AID504699, AID504701]. Format: functional. Conditions: Cricetulus griseus. In general terms: A counterscreen serves to expose hits that act by an unwanted route or on another target.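 Further: potency for inhibition of ATP-stimulated IP1 production as antagonists.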

Assay [1] in a line: Counterscreen for antagonists of the orexin 1 receptor (OX1R; HCRTR1): Fluorescence-based cell-based high throughput dose response assay to identify antagonists of the parental CHO cell line. [Related pubchem assays (depositor defined):AID434989, AID435008, AID463079, AID485270, AID492963, AID492964, AID492965, AID493232, AID504699, AID504701]. It is filed as functional.
Assay [2] concerns the target T1, Orexin/Hypocretin receptor type 1 (Homo sapiens, UniProt O43613).
T1 sequence (O43613 whole entry): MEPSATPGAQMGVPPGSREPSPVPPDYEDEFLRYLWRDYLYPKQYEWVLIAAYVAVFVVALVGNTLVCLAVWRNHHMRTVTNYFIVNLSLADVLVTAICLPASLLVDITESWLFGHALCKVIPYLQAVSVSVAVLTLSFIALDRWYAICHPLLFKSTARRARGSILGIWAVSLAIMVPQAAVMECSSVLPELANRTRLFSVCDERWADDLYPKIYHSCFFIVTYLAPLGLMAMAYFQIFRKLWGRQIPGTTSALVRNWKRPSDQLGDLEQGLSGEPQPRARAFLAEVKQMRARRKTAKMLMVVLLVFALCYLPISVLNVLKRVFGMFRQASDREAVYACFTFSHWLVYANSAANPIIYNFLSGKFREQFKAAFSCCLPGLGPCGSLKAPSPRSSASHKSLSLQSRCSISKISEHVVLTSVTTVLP
In words: Homogeneous Time Resolved Fluorescence (HTRF)-based cell-based high throughput dose response assay for antagonists of the orexin 1 receptor (OX1R; HCRTR1). [Related pubchem assays (depositor defined):AID434989, AID435008, AID463079, AID485270, AID492963, AID492964, AID492965, AID493232, AID504717, AID504718]. It is filed as functional. Background: Time-resolved FRET reads energy transfer from a long-lived donor to a nearby acceptor.

In assay [3] the target is T1, Orexin/Hypocretin receptor type 1. Nature of the assay: Fluorescence-based cell-based high throughput dose response assay for antagonists of the orexin 1 receptor (OX1R; HCRTR1). [Related pubchem assays (depositor defined):AID434989, AID435008, AID463079, AID485270, AID492963, AID492964, AID492965, AID493232, AID504717, AID504718]. It is filed as functional.
Assay [4] has as its target T2, Orexin receptor type 2 (Homo sapiens, UniProt O43614). Nature of the assay: Counterscreen assay for antagonists of the orexin 1 receptor (OX1R; HCRTR1): Fluorescence-based cell-based dose response assay for antagonists of the orexin 2 receptor (OX2R; HCRTR2), run by assay provider. It is filed as functional.
Assay [5] addresses T2, Orexin receptor type 2. In words: Counterscreen assay for antagonists of the orexin 1 receptor (OX1R; HCRTR1): Homogeneous Time Resolved Fluorescence (HTRF)-based cell-based dose response assay for antagonists of the orexin 2 receptor (OX2R; HCRTR2), run by assay provider. It is filed as functional.
The target of assay [6] is Melanin-concentrating hormone receptor 1 (Homo sapiens, UniProt Q99705). Nature of the assay: Late-stage fluorescence-based counterscreen for antagonists of the G-protein coupled receptor 7 (GPR7): cell-based dose response assay to identify antagonists of the melanin-concentrating hormone receptor 1 (MCHR1) Set 6. It is filed as functional.
Chain of Melanin-concentrating hormone receptor 1 (Q99705 whole entry): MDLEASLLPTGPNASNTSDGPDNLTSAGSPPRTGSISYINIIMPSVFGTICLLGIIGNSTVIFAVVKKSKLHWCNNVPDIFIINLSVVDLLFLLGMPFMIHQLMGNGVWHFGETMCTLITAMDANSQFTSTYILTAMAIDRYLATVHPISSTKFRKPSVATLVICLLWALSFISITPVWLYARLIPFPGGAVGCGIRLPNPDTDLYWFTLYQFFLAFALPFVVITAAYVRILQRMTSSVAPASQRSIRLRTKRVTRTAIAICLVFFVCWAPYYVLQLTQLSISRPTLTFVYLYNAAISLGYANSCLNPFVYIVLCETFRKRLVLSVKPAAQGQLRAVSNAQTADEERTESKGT
For assay [7], the target named is Neuropeptides B/W receptor type 1 (Homo sapiens, UniProt P48145). In words: human NPBW1 receptor blockade, IC50 – cell-based, fluorescence, dose response, set 6, late-stage follow-up (AID 588583). It is filed as functional.
Chain of Neuropeptides B/W receptor type 1 (P48145 whole entry): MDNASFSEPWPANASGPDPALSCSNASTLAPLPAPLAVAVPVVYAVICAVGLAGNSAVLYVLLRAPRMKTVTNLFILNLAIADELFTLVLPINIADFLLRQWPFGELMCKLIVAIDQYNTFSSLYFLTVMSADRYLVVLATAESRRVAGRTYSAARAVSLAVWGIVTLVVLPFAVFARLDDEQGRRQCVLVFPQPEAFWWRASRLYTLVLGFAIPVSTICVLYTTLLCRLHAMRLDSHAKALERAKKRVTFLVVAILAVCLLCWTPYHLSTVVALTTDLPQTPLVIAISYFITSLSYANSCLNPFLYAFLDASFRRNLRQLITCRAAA
The target in assay [8] is DNA dC->dU-editing enzyme APOBEC-3G (Homo sapiens, UniProt Q9HC16). Nature of the assay: inhibition of APOBEC3G ssDNA deamination – biochemical, fluorescence, single-stranded DNA substrate, SAR follow-up (AID 602136). Conditions: read-out: IC50_Mean. Format: functional.
Chain of DNA dC->dU-editing enzyme APOBEC-3G (Q9HC16 whole entry): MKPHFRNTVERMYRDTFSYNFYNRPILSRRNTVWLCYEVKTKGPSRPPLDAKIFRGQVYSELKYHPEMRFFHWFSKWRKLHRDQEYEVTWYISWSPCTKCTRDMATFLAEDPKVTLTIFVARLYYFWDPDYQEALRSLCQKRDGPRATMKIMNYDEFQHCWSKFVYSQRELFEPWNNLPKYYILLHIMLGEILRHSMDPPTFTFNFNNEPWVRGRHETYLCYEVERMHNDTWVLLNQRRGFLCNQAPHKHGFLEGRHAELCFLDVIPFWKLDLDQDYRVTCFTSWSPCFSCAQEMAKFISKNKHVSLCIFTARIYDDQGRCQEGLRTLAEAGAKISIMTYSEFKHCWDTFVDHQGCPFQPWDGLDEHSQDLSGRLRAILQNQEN
Assay [9] has as its target DNA dC->dU-editing enzyme APOBEC-3A (Homo sapiens, UniProt P31941). Nature of the assay: SAR analysis of small molecule inhibitors of APOBEC3A DNA Deaminase via a fluorescence-based single-stranded DNA deaminase assay. Format: functional. Conditions: read-out: IC50_Mean.
A short description of assay [10]: microbe, parasite or virus in culture. Conditions: Mycobacterium tuberculosis. It is filed as functional.
The nature of assay [11]: THP-1 cell cytotoxicity, dose response, cytotoxicity control for non-replicating M. tuberculosis project (AID 489025). It is filed as functional.
A short description of assay [12]: Vero E6 cell cytotoxicity, dose response, cytotoxicity control for non-replicating M. tuberculosis project, secondary assay (AID 492998). Format: functional, VeroE6. Conditions: Vero C1008.
The next assay is described as follows: cells. It is filed as functional.
Assay [13] is described as follows: reduction of Shn3 3'UTR-driven luciferase in osteoblasts – cell-based, Clone20 osteoblasts, firefly luciferase, cherry-picked, dose response (AID 624132).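 Further: firefly luciferase luminescence from reporter carrying the Shn3 3'UTR in osteoblasts.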 It is filed as functional.
A short description of assay [14]: A Cell Based Secondary Assay to Explore Cytotoxicity in THP-1 Cells of Compounds that Modulate Mycobacterium tuberculosis in Media Containing Glycerol versus Media without Glycerol (2). It is filed as functional.
A short description of assay [15]: Vero cell cytotoxicity, cytotoxicity control for M. tuberculosis inhibitor project, purified and synthesized samples, set 3 (AID 504684). It is filed as functional. The note with it: […].
Assay [16] can be described thus: A Cell Based Secondary Assay to Explore Cytotoxicity in HepG2 Cells of Compounds that Modulate Mycobacterium tuberculosis in Media Containing Glycerol versus Media without Glycerol (2). Format: functional.
Assay [17] in a line: non-specific 3'UTR reporter inhibition in Clone20-Shn3RL – cell-based, Renilla luciferase, cherry-picked, counter-screen for Shn3 inhibitor project, dose response (AID 624133). It is filed as functional.
Assay [18] has as its target Cell division cycle 7-related protein kinase (Homo sapiens, UniProt O00311). Format: functional.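 Further: value obtained from a kinome-wide kinase panel.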
Assay [19] addresses Cyclin-dependent kinase 19 (Homo sapiens, UniProt Q9BWU1). Nature of the assay: Navigating the Kinome. Panel member name: CDC2L6. Format: functional.
Assay [20] has as its target Casein kinase I isoform alpha (Homo sapiens, UniProt P48729). Format: functional.
Assay [21] addresses Serine/threonine-protein kinase TAO1 (Homo sapiens, UniProt Q7L7X3). It is filed as functional.
Assay [22] addresses Cyclin-dependent kinase 5 (Homo sapiens, UniProt Q00535). It is filed as functional.
Assay [23] has as its target Cyclin-dependent kinase 8 (Homo sapiens, UniProt P49336). Nature of the assay: Navigating the Kinome. Panel member name: CDK8. It is filed as functional.

T2 sequence (O43614 whole entry): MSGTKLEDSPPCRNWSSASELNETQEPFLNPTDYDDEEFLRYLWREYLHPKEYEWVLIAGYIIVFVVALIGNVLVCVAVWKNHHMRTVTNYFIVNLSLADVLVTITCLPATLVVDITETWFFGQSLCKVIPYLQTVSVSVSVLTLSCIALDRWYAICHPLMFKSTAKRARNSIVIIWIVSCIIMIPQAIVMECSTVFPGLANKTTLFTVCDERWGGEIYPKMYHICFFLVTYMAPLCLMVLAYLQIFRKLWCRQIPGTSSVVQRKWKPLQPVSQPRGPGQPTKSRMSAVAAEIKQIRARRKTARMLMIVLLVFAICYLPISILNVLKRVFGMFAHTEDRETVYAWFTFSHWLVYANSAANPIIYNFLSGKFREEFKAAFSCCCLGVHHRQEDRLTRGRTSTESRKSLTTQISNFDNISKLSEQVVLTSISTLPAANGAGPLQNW
Chain of Serine/threonine-protein kinase TAO1 (Q7L7X3 whole entry): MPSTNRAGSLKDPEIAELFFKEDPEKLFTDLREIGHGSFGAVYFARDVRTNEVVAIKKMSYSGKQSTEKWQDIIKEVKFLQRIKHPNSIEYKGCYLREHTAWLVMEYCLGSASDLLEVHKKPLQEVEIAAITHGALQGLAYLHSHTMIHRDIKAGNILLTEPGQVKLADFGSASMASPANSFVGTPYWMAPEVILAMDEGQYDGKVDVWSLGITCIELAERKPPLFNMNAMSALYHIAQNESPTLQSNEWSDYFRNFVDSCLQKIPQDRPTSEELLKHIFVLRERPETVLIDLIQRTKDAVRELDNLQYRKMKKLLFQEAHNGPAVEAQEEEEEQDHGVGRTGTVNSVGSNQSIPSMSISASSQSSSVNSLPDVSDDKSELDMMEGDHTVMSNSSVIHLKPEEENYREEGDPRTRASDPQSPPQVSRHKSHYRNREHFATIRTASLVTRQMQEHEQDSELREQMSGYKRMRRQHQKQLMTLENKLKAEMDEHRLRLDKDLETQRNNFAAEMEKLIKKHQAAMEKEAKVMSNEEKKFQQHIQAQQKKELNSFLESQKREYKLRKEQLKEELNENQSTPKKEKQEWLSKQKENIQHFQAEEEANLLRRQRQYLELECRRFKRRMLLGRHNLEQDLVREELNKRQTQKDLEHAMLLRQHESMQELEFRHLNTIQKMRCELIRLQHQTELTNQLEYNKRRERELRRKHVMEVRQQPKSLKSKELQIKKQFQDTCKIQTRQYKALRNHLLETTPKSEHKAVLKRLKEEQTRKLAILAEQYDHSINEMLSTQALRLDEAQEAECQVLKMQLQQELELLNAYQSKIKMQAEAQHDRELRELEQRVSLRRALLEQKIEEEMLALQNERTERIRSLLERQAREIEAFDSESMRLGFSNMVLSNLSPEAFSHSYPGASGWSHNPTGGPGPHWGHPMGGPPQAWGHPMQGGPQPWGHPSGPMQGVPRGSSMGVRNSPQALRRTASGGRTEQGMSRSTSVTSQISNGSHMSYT
Chain of Casein kinase I isoform alpha (P48729 whole entry, canonical isoform): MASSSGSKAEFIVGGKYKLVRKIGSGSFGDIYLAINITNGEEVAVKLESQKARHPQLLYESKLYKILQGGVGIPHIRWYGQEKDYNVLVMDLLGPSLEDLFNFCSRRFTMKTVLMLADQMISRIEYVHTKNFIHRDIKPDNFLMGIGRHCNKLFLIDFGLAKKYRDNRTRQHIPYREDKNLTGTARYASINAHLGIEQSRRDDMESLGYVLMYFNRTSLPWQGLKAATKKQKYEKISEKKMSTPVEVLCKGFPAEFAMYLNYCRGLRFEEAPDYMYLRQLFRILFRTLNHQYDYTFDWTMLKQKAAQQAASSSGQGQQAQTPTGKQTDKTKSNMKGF
Chain of Cyclin-dependent kinase 19 (Q9BWU1 whole entry, canonical isoform): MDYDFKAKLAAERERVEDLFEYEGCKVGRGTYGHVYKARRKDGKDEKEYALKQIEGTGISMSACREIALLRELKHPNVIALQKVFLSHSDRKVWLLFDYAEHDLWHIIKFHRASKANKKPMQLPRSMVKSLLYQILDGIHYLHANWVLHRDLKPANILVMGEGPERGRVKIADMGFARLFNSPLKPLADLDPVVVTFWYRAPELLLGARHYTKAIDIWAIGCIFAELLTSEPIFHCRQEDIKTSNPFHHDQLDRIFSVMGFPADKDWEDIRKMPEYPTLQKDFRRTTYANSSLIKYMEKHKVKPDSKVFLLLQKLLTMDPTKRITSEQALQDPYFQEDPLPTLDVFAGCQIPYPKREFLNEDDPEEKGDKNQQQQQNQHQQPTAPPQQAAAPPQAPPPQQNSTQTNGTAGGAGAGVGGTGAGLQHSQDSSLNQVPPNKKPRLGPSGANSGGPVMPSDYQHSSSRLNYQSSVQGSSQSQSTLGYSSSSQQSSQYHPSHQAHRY
Chain of Cyclin-dependent kinase 8 (P49336 whole entry): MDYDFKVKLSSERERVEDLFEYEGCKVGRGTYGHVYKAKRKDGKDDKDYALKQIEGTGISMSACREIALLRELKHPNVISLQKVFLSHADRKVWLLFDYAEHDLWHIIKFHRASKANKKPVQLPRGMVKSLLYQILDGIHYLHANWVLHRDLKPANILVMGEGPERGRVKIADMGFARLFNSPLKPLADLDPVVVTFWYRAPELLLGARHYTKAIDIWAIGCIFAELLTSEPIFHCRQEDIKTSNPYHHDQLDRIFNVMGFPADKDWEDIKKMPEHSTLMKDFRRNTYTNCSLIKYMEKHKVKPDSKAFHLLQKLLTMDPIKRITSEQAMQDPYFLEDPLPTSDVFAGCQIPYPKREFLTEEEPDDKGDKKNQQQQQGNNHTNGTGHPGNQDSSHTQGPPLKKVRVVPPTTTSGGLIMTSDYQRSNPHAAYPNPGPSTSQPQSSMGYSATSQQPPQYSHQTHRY
Chain of DNA dC->dU-editing enzyme APOBEC-3A (P31941 whole entry): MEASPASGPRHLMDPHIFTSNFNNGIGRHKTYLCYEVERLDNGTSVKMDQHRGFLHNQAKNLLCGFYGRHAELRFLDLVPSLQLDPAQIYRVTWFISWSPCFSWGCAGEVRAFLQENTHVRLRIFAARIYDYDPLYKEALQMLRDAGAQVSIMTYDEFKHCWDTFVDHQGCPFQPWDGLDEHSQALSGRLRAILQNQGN
Chain of Cell division cycle 7-related protein kinase (O00311 whole entry): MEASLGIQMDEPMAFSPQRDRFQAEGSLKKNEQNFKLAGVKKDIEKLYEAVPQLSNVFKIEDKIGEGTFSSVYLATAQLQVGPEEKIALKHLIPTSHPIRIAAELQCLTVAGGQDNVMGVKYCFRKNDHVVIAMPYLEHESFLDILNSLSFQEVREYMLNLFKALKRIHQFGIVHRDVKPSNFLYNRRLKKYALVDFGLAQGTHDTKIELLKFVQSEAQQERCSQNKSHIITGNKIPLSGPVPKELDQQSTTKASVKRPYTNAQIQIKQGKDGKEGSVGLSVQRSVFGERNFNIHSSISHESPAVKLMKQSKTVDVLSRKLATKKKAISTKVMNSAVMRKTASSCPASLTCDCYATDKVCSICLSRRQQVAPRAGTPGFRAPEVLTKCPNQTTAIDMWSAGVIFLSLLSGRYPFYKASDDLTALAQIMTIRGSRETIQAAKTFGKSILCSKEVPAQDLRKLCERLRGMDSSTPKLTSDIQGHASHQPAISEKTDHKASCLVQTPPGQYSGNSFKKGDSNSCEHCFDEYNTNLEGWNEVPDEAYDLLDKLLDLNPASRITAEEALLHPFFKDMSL
Chain of Cyclin-dependent kinase 5 (Q00535 whole entry): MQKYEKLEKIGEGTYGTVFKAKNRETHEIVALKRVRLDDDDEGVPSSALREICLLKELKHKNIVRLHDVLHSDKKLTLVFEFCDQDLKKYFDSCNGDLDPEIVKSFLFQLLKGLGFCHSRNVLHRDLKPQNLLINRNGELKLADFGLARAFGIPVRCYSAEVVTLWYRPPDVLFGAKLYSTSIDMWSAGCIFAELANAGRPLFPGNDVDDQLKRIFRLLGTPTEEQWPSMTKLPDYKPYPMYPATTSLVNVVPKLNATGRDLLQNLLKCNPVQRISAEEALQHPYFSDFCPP

As for `CSc1cccc(NC(=O)C2CCCN2S(=O)(=O)c2ccc(Br)s2)c1` (stereo not given), the IC50 was > 66.2 µM (inactive) with CHO-K1; 27.8 µM (inactive) in [1]; 0.0933 µM (active) in [2]; 0.8 µM (active) in [3]; 0.4 µM (active) on Orexin receptor type 2 [4]; 0.34 µM (active) at Orexin receptor type 2 [5].
With `CC(C)(C)OC(=O)C(C#N)c1c(Cl)cnn(Cc2cccc3ccccc23)c1=O` (stereo not given), the IC50 in assay [6] and in assay [7] was 0.682 µM (active) in each case.
For the compound `COc1cc2c(c3oc(=O)c4c(c13)CCC4)C=CC(C)(C)O2`, the IC50 in assay [8] and in assay [9] was > 99 µM (inactive) in each case.
For orientation: AC50 means the concentration at which the activity in the assay is half-maximal. For `Cc1ccc2c(c1)/C(=C1\C(=O)Nc3ccccc31)C(=O)N2C`, the CC50 in assay [10] is 16.3 µM (active); in assay [11] it was 27 µM (active); in assay [12], 4.76 µM (active); in assay [14], 13.4 µM (active); in assay [15] it was 4.55 µM (active); in assay [16] it was 12.9 µM (active). Moreover, in the assay “cells”, the IC50 is 1.89 µM (active). In addition, the AC50 in [13] was 8.85 µM (active); in assay [17], 12.1 µM (active).
As usually defined, the Ki is the dissociation constant of the complex between target and ligand, obtained from inhibition or displacement. For the compound `O=C(O)c1ccccc1Nc1ccnc(NCc2ccccc2)n1`, the values for the Ki in assay [18] and in [19] were 0.0501 µM (active) and > 100 µM (inactive), respectively.
Turning to `CC(C)(C)c1cc(NC(=O)C(=O)c2cccc3ccccc23)n(-c2ccc(OCCC(N)=O)cc2)n1`, the Ki in [20] was 3.98 µM (active); in [21], > 6.31 µM (inactive); in assay [22], 1.58 µM (active); in assay [23], 2 µM (active).
